Laboratory results: article PMC8371902, “Phase 1 study of M2698, a p70S6K/AKT dual inhibitor, in patients with advanced cancer” (Journal of Hematology & Oncology, 2021)
Like-named read-outs stand apart in the source and are kept apart here.

Tested on: patients with advanced metastatic cancer
From the text: In this phase 1 study, dose escalation was followed by expansion cohorts of once-daily, oral M2698 in continuous 21-day cycles. Primary objectives were to determine the maximum tolerated dose (MTD), dose-limiting toxicities (DLTs), and recommended phase 2 dose (RP2D). Secondary objectives were to assess safety and tolerability, pharmacokinetics (PK, including food effect) and antitumor activity. Pharmacodynamic biomarker assessments were exploratory. Treatment was discontinued if there was disease progression, toxicity or consent withdrawal.
In Part 1, M2698 monotherapy was investigated in a dose escalation with a food effect cohort. In Part 2, M2698 was investigated as monotherapy (expansion cohort) to further characterize safety, tolerability and pharmacokinetics, and assess antitumor activity in PAM + patients without confounding markers (exploratory).
Dose escalation analysis included all patients who experienced a DLT and those who received ≥ 80% of planned M2698 doses in cycle 1 without experiencing a DLT. Safety analysis included all patients who received ≥ 1 dose of M2698. PK analysis included all patients who received ≥ 1 dose of M2698 and had measurable plasma concentrations. Dose proportionality was tested using the power model (linear regression approach on the log -transformed scale).

SMILES: NC(=O)c1cccc2c(N[C@H](CN3CCC3)c3ccc(Cl)c(C(F)(F)F)c3)ncnc12 [M2698]
- M2698-related TEAE: Hyperhidrosis (30 mg n=3): 0
- M2698-related TEAE: Hypokalaemia (30 mg n=3): 1
- M2698-related TEAE: Hypomagnesaemia (30 mg n=3): 0
- M2698-related TEAE: Insomnia (30 mg n=3): 0
- M2698-related TEAE: Investigations (30 mg n=3): 0
- M2698-related TEAE: Lipase increased (30 mg n=3): 0
- M2698-related TEAE: Lymphopenia (30 mg n=3): 0
- M2698-related TEAE: Metabolism and nutrition disorders (30 mg n=3): 1
- M2698-related TEAE: Mucosal inflammation (30 mg n=3): 0
- M2698-related TEAE: Nausea (30 mg n=3): 0
- M2698-related TEAE: Nervous system disorders (30 mg n=3): 0
- M2698-related TEAE: Nightmare (30 mg n=3): 0
- M2698-related TEAE: Onychomadesis (30 mg n=3): 0
- M2698-related TEAE: Paranoia (30 mg n=3): 0
- M2698-related TEAE: Photosensitivity reaction (30 mg n=3): 0
- M2698-related TEAE: Posterior reversible encephalopathy syndrome (30 mg n=3): 0
- M2698-related TEAE: Pruritus generalised (30 mg n=3): 0
- M2698-related TEAE: Psychiatric disorders (30 mg n=3): 0
- M2698-related TEAE: Rash (30 mg n=3): 0
- M2698-related TEAE: Rash maculo-papular (30 mg n=3): 1
- M2698-related TEAE: Skin and subcutaneous tissue disorders (30 mg n=3): 1
- M2698-related TEAE: Subjects with at least one event (30 mg n=3): 2
- M2698-related TEAE: Transaminases increased (30 mg n=3): 0
- M2698-related TEAE: Tremor (30 mg n=3): 0
- M2698-related TEAE: Vision blurred (30 mg n=3): 1
- M2698-related TEAE: Vomiting (30 mg n=3): 0
- M2698-related TEAE: White blood cell count decreased (30 mg n=3): 0
- M2698-related TEAE: Abnormal dreams (60 mg n=6): 0
- M2698-related TEAE: Affect lability (60 mg n=6): 1
- M2698-related TEAE: Alanine aminotransferase increased (60 mg n=6): 1
- M2698-related TEAE: Amylase increased (60 mg n=6): 1
- M2698-related TEAE: Anaemia (60 mg n=6): 0
- M2698-related TEAE: Angina pectoris (60 mg n=6): 1
- M2698-related TEAE: Anxiety (60 mg n=6): 0
- M2698-related TEAE: Aphasia (60 mg n=6): 0
- M2698-related TEAE: Ataxia (60 mg n=6): 0
- M2698-related TEAE: Blood and lymphatic system disorders (60 mg n=6): 0
- M2698-related TEAE: Blood creatine phosphokinase increased (60 mg n=6): 0
- M2698-related TEAE: Blood creatinine increased (60 mg n=6): 0
- M2698-related TEAE: Cardiac disorders (60 mg n=6): 1
- M2698-related TEAE: Cognitive disorder (60 mg n=6): 0
- M2698-related TEAE: Constipation (60 mg n=6): 0
- M2698-related TEAE: Decreased appetite (60 mg n=6): 0
- M2698-related TEAE: Delusion (60 mg n=6): 0
- M2698-related TEAE: Depression (60 mg n=6): 0
- M2698-related TEAE: Diarrhoea (60 mg n=6): 0
- M2698-related TEAE: Diarrhoea haemorrhagic (60 mg n=6): 0
- M2698-related TEAE: Dizziness (60 mg n=6): 0
- M2698-related TEAE: Dry eye (60 mg n=6): 0
- M2698-related TEAE: Dry mouth (60 mg n=6): 0
- M2698-related TEAE: Dysgeusia (60 mg n=6): 0
- M2698-related TEAE: Dyspepsia (60 mg n=6): 0
- M2698-related TEAE: Dysphagia (60 mg n=6): 0
- M2698-related TEAE: Energy increased (60 mg n=6): 0
- M2698-related TEAE: Erythema (60 mg n=6): 0
- M2698-related TEAE: Euphoric mood (60 mg n=6): 0
- M2698-related TEAE: Eye disorders (60 mg n=6): 0
- M2698-related TEAE: Fatigue (60 mg n=6): 0
- M2698-related TEAE: Gamma-glutamyltransferase increased (60 mg n=6): 0
- M2698-related TEAE: Gastrointestinal disorders (60 mg n=6): 0
- M2698-related TEAE: Gastrooesophageal reflux disease (60 mg n=6): 0
- M2698-related TEAE: General disorders and administration site conditions (60 mg n=6): 0
- M2698-related TEAE: Headache (60 mg n=6): 0
- M2698-related TEAE: Hyperhidrosis (60 mg n=6): 0
- M2698-related TEAE: Hypokalaemia (60 mg n=6): 0
- M2698-related TEAE: Hypomagnesaemia (60 mg n=6): 0
- M2698-related TEAE: Insomnia (60 mg n=6): 0
- M2698-related TEAE: Investigations (60 mg n=6): 1
- M2698-related TEAE: Lipase increased (60 mg n=6): 1
- M2698-related TEAE: Lymphopenia (60 mg n=6): 0
- M2698-related TEAE: Metabolism and nutrition disorders (60 mg n=6): 0
- M2698-related TEAE: Mucosal inflammation (60 mg n=6): 0
- M2698-related TEAE: Nausea (60 mg n=6): 0
- M2698-related TEAE: Nervous system disorders (60 mg n=6): 0
- M2698-related TEAE: Nightmare (60 mg n=6): 0
- M2698-related TEAE: Onychomadesis (60 mg n=6): 1
- M2698-related TEAE: Paranoia (60 mg n=6): 0
- M2698-related TEAE: Photosensitivity reaction (60 mg n=6): 0
- M2698-related TEAE: Posterior reversible encephalopathy syndrome (60 mg n=6): 0
- M2698-related TEAE: Pruritus generalised (60 mg n=6): 0
- M2698-related TEAE: Psychiatric disorders (60 mg n=6): 1
- M2698-related TEAE: Rash (60 mg n=6): 0
- M2698-related TEAE: Rash maculo-papular (60 mg n=6): 0
- M2698-related TEAE: Skin and subcutaneous tissue disorders (60 mg n=6): 1
- M2698-related TEAE: Subjects with at least one event (60 mg n=6): 2
- M2698-related TEAE: Transaminases increased (60 mg n=6): 0
- M2698-related TEAE: Tremor (60 mg n=6): 0
- M2698-related TEAE: Vision blurred (60 mg n=6): 0
- M2698-related TEAE: Vomiting (60 mg n=6): 0
- M2698-related TEAE: White blood cell count decreased (60 mg n=6): 0
- DLT observed (60 mg, n = 1, resolved following treatment interruption): grade 3 lipase increase
- M2698-related TEAE: Abnormal dreams (75 mg n=4): 1
- M2698-related TEAE: Affect lability (75 mg n=4): 0
- M2698-related TEAE: Alanine aminotransferase increased (75 mg n=4): 0
- M2698-related TEAE: Amylase increased (75 mg n=4): 0
- M2698-related TEAE: Anaemia (75 mg n=4): 0
- M2698-related TEAE: Angina pectoris (75 mg n=4): 0
- M2698-related TEAE: Anxiety (75 mg n=4): 0
- M2698-related TEAE: Aphasia (75 mg n=4): 0
